Results reported in the kinase profiling compilation of Christmann-Franck et al. (2016).

Experiments:
Assay in all cases: radiometric filter-binding kinase assay, Kinase HotSpot
Settings in all cases: compound 0.5 µM; ATP 10 µM
AKT3 (human) = AKT3 (human) (UniProt Q9Y243)
CAMK1G (human) = CAMK1G (human) (UniProt Q96NX5)
CAMK2A (human) = CAMK2A (human) (UniProt Q9UQM7)
CAMK2B (human) = CAMK2B (human) (UniProt Q13554)
CAMK2D (human) = CAMK2D (human) (UniProt Q13557)
CDK2 CCNA2 (human) = CDK2 CCNA2 (human) (UniProt P24941+P20248)
CDK3 CCNE1 (human) = CDK3 CCNE1 (human) (UniProt Q00526+P24864)
CDK4 CCND1 (human) = CDK4 CCND1 (human) (UniProt P24385+P11802)
Sequence of CDK4 CCND1 (human) (P11802 whole entry, looked up): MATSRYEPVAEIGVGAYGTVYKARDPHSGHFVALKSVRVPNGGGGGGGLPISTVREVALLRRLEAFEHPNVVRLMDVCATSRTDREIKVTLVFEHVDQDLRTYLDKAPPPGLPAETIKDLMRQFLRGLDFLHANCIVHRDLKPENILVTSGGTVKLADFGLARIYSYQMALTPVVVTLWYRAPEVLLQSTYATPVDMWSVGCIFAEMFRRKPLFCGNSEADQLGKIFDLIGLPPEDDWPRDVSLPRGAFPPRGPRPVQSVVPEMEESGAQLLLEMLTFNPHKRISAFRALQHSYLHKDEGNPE
Sequence of CDK4 CCND1 (human) (P24385 whole entry, looked up): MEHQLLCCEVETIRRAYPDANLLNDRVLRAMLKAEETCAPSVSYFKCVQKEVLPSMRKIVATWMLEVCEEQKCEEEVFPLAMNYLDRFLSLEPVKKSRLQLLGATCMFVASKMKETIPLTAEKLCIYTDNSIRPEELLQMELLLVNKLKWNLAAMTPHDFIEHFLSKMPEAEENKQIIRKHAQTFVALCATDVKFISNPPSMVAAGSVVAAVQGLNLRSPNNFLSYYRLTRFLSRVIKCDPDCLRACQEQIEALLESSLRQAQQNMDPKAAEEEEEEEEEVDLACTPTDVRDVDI

CDK6 CCND3 (human) = CDK6 CCND3 (human) (UniProt P30281+Q00534)
CHEK1 (human) = CHEK1 (human) (UniProt O14757)
CLK1 (human) = CLK1 (human) (UniProt P49759)
DAPK2 (human) = DAPK2 (human) (UniProt Q9UIK4)
DAPK3 (human) = DAPK3 (human) (UniProt O43293)
EPHB4 (human) = EPHB4 (human) (UniProt P54760)
GRK4 (human) = GRK4 (human) (UniProt P32298)
GRK7 (human) = GRK7 (human) (UniProt Q8WTQ7)
HIPK4 (human) = HIPK4 (human) (UniProt Q8NE63)
Sequence of HIPK4 (human) (Q8NE63 whole entry, looked up): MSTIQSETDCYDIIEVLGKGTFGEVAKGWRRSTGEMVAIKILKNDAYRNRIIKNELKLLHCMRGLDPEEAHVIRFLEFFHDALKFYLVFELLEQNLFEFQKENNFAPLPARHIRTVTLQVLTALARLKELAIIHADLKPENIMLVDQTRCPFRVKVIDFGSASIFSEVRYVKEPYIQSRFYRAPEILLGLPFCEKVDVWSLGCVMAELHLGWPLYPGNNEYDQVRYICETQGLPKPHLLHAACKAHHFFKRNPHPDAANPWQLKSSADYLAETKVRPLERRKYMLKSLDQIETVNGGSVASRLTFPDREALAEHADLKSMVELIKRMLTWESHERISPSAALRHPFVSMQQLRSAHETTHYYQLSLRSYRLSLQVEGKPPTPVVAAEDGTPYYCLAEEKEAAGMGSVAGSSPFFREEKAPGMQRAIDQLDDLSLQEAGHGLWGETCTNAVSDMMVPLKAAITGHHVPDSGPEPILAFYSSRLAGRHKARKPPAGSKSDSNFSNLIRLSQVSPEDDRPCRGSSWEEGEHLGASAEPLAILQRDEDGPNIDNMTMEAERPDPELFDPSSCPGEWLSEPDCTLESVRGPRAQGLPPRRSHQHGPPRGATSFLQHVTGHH

IRAK1 (human) = IRAK1 (human) (UniProt P51617)
[1] = molecular target: JAK1 JH1 catalytic (human) (UniProt P23458)
JAK3 JH1 JH2 (human) = JAK3 JH1 JH2 (human) (UniProt P52333)
MAPK1 (human) = MAPK1 (human) (UniProt P28482)
MYLK2 (human) = MYLK2 (human) (UniProt Q9H1R3)
PBK (human) = PBK (human) (UniProt Q96KB5)
PIM2 (human) = PIM2 (human) (UniProt Q9P1W9)
PRKCH (human) = PRKCH (human) (UniProt P24723)
Sequence of PRKCH (human) (P24723 whole entry, looked up): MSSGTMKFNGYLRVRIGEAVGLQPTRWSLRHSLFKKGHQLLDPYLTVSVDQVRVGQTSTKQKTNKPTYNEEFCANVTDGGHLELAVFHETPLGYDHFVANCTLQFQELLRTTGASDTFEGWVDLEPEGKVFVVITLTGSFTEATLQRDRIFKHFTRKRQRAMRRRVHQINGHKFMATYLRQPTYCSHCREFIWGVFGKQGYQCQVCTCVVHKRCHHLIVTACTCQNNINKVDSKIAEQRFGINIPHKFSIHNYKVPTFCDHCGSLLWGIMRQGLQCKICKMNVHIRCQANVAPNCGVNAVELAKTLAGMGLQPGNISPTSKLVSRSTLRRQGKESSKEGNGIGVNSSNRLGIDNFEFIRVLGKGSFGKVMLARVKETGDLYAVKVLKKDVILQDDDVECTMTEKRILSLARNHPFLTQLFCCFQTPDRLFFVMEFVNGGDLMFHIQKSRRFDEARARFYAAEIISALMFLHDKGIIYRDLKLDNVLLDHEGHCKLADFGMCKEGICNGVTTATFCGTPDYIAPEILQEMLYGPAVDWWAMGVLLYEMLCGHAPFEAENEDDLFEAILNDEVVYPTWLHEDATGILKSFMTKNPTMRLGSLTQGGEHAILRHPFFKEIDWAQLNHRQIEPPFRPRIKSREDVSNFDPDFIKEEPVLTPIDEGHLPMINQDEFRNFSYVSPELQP

PRKCI (human) = PRKCI (human) (UniProt P41743)
PRKD1 (human) = PRKD1 (human) (UniProt Q15139)
RIPK2 (human) = RIPK2 (human) (UniProt O43353)
ROCK1 (human) = ROCK1 (human) (UniProt Q13464)
RPS6KA5 KD2 (human) = RPS6KA5 KD2 (human) (UniProt O75582)
STK11 (human) = STK11 (human) (UniProt Q15831)
STK33 (human) = STK33 (human) (UniProt Q9BYT3)
STK39 (human) = STK39 (human) (UniProt Q9UEW8)
TAOK3 (human) = TAOK3 (human) (UniProt Q9H2K8)
TGFBR1 (human) = TGFBR1 (human) (UniProt P36897)
Sequence of TGFBR1 (human) (P36897 whole entry, looked up): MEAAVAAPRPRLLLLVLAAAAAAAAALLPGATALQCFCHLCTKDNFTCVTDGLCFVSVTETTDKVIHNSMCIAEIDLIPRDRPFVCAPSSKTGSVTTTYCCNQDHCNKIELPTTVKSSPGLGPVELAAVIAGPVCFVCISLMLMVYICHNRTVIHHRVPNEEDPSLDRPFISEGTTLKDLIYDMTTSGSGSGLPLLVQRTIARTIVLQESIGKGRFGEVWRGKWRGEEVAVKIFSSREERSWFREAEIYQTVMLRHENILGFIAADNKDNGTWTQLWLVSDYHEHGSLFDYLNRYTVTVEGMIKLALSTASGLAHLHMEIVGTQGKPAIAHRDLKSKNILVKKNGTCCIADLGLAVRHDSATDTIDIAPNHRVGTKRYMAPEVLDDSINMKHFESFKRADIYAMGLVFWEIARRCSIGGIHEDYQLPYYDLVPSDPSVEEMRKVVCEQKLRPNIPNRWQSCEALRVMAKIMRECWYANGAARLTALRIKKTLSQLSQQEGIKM

TSSK1B (human) = TSSK1B (human) (UniProt Q9BXA7)
Sequence of TSSK1B (human) (Q9BXA7 whole entry, looked up): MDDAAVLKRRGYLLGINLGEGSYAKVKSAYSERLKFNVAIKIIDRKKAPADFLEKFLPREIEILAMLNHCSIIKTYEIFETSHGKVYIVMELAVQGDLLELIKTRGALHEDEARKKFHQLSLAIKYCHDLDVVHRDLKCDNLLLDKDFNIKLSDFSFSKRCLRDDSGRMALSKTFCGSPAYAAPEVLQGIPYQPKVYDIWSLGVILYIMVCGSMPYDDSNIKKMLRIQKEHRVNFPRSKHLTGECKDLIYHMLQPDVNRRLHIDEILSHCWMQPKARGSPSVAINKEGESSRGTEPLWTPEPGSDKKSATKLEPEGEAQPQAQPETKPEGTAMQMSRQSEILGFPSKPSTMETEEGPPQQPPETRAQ

TSSK2 (human) = TSSK2 (human) (UniProt Q96PF2)
Sequence of TSSK2 (human) (Q96PF2 whole entry, looked up): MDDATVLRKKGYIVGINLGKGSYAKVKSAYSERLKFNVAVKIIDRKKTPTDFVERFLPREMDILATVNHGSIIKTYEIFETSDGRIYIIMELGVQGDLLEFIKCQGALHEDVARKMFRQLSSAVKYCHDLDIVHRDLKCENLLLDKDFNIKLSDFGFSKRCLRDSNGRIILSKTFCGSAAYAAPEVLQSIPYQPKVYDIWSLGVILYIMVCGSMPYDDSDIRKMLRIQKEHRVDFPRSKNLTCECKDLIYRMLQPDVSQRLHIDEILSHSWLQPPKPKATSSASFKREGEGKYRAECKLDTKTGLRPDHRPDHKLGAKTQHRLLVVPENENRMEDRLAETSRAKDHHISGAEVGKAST

[2] = molecular target: TYK2 JH1 catalytic (human) (UniProt P29597)
Sequence of TYK2 JH1 catalytic (human) (P29597 whole entry, looked up): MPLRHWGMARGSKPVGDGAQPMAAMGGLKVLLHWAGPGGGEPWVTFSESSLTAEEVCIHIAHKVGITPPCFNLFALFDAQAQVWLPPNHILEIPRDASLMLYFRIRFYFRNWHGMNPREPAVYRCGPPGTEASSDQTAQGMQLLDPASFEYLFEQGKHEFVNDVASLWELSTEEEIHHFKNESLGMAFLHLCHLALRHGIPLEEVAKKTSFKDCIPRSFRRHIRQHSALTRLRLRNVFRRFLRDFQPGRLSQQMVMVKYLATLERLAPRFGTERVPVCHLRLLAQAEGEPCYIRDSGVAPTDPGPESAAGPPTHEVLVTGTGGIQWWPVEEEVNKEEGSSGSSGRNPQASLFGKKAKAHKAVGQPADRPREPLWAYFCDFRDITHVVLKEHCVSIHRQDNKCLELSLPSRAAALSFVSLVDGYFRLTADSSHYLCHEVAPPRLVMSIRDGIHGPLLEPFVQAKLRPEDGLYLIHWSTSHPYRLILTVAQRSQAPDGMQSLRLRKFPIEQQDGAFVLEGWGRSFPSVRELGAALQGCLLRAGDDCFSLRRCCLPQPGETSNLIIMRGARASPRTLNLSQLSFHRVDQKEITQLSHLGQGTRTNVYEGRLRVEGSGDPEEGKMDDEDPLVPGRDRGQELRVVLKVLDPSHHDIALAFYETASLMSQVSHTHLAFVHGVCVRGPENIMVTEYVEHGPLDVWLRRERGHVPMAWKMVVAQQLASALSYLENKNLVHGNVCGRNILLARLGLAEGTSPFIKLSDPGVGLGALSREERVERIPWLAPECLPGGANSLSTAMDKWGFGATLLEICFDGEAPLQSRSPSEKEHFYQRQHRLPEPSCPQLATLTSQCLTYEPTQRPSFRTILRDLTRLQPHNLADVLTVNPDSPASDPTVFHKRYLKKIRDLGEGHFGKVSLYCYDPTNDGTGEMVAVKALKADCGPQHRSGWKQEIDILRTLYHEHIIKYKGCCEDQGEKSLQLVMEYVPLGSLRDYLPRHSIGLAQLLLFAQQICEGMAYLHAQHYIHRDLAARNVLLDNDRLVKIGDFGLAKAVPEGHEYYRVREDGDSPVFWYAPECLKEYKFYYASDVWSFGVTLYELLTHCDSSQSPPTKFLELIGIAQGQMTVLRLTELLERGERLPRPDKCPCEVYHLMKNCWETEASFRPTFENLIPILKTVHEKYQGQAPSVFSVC

TYRO3 (human) = TYRO3 (human) (UniProt Q06418)
VRK1 (human) = VRK1 (human) (UniProt Q99986)
YES1 (human) = YES1 (human) (UniProt P07947)

Sequence of CAMK2D (human) (Q13557 whole entry, looked up): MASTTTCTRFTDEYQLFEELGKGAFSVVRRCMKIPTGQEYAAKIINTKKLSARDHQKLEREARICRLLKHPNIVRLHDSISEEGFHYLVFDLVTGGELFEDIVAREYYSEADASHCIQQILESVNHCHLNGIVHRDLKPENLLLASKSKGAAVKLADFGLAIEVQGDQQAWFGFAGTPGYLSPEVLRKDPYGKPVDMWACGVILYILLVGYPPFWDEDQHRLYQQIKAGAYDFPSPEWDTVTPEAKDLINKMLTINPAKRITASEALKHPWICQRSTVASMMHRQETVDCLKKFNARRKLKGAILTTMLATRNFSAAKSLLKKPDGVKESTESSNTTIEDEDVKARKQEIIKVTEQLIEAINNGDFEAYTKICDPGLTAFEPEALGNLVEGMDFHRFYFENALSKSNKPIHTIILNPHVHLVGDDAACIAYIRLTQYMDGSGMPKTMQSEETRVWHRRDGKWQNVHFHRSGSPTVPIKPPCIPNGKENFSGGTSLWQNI

## COc1cccc(-c2cc(=O)c3ccccc3o2)c1N
AKT3 (human)
  residual activity: 101%
CAMK1G (human)
  residual activity: 96.5%
CAMK2A (human)
  residual activity: 93.6%
CAMK2B (human)
  residual activity: 103%
CAMK2D (human)
  residual activity: 91.5%
CDK2 CCNA2 (human)
  residual activity: 102%
CDK3 CCNE1 (human)
  residual activity: 109%
CDK4 CCND1 (human)
  residual activity: 100%
CDK6 CCND3 (human)
  residual activity: 99.3%
CHEK1 (human)
  residual activity: 103%
CLK1 (human)
  residual activity: 97.7%
DAPK2 (human)
  residual activity: 107%
DAPK3 (human)
  residual activity: 101%
EPHB4 (human)
  residual activity: 101%
GRK4 (human)
  residual activity: 104%
GRK7 (human)
  residual activity: 103%
HIPK4 (human)
  residual activity: 98.6%
IRAK1 (human)
  residual activity: 98.8%
[1]
  residual activity: 98.9%
JAK3 JH1 JH2 (human)
  residual activity: 96.9%
MAPK1 (human)
  residual activity: 97.1%
MYLK2 (human)
  residual activity: 101%
PBK (human)
  residual activity: 97.6%
PIM2 (human)
  residual activity: 99.3%
PRKCH (human)
  residual activity: 87%
PRKCI (human)
  residual activity: 97.3%
PRKD1 (human)
  residual activity: 103%
RIPK2 (human)
  residual activity: 87.5%
ROCK1 (human)
  residual activity: 95.6%
RPS6KA5 KD2 (human)
  residual activity: 96.4%
STK11 (human)
  residual activity: 101%
STK33 (human)
  residual activity: 98.2%
STK39 (human)
  residual activity: 86.8%
TAOK3 (human)
  residual activity: 77%
TGFBR1 (human)
  residual activity: 94.7%
TSSK1B (human)
  residual activity: 82.4%
TSSK2 (human)
  residual activity: 79.7%
[2]
  residual activity: 92.7%
TYRO3 (human)
  residual activity: 96.9%
VRK1 (human)
  residual activity: 89.4%
YES1 (human)
  residual activity: 93.5%

## N#Cc1c(NC(=O)c2cccc3ccccc23)sc2c1CCCC2
AKT3 (human)
  residual activity: 99.6%
CAMK1G (human)
  residual activity: 97.7%
CAMK2A (human)
  residual activity: 104%
CAMK2B (human)
  residual activity: 101%
CAMK2D (human)
  residual activity: 97.7%
CDK2 CCNA2 (human)
  residual activity: 100%
CDK3 CCNE1 (human)
  residual activity: 99.2%
CDK4 CCND1 (human)
  residual activity: 98.7%
CDK6 CCND3 (human)
  residual activity: 99%
CHEK1 (human)
  residual activity: 104%
CLK1 (human)
  residual activity: 99.2%
DAPK2 (human)
  residual activity: 105%
DAPK3 (human)
  residual activity: 110%
EPHB4 (human)
  residual activity: 99.5%
GRK4 (human)
  residual activity: 110%
GRK7 (human)
  residual activity: 116%
HIPK4 (human)
  residual activity: 110%
IRAK1 (human)
  residual activity: 104%
[1]
  residual activity: 108%
JAK3 JH1 JH2 (human)
  residual activity: 101%
MAPK1 (human)
  residual activity: 87.5%
MYLK2 (human)
  residual activity: 101%
PBK (human)
  residual activity: 116%
PIM2 (human)
  residual activity: 104%
PRKCH (human)
  residual activity: 97.9%
PRKCI (human)
  residual activity: 95.9%
PRKD1 (human)
  residual activity: 101%
RIPK2 (human)
  residual activity: 81.3%
ROCK1 (human)
  residual activity: 96.3%
RPS6KA5 KD2 (human)
  residual activity: 99.6%
STK11 (human)
  residual activity: 96.1%
STK33 (human)
  residual activity: 93%
STK39 (human)
  residual activity: 94.6%
TAOK3 (human)
  residual activity: 90.2%
TGFBR1 (human)
  residual activity: 101%
TSSK1B (human)
  residual activity: 94.9%
TSSK2 (human)
  residual activity: 104%
[2]
  residual activity: 100%
TYRO3 (human)
  residual activity: 101%
VRK1 (human)
  residual activity: 87.2%
YES1 (human)
  residual activity: 104%

## O=C(O)c1ccc2c3c1cccc3c(=O)n1c3ccccc3nc21
AKT3 (human)
  residual activity: 104%
CAMK1G (human)
  residual activity: 99%
CAMK2A (human)
  residual activity: 85.2%
CAMK2B (human)
  residual activity: 92.6%
CAMK2D (human)
  residual activity: 93.6%
CDK2 CCNA2 (human)
  residual activity: 82.7%
CDK3 CCNE1 (human)
  residual activity: 97.9%
CDK4 CCND1 (human)
  residual activity: 106%
CDK6 CCND3 (human)
  residual activity: 105%
CHEK1 (human)
  residual activity: 101%
CLK1 (human)
  residual activity: 93.8%
DAPK2 (human)
  residual activity: 91.9%
DAPK3 (human)
  residual activity: 51.3%
EPHB4 (human)
  residual activity: 90.6%
GRK4 (human)
  residual activity: 95.5%
GRK7 (human)
  residual activity: 102%
HIPK4 (human)
  residual activity: 86.9%
IRAK1 (human)
  residual activity: 61.1%
[1]
  residual activity: 98.4%
JAK3 JH1 JH2 (human)
  residual activity: 46.9%
MAPK1 (human)
  residual activity: 100%
MYLK2 (human)
  residual activity: 99.6%
PBK (human)
  residual activity: 97.5%
PIM2 (human)
  residual activity: 41.7%
PRKCH (human)
  residual activity: 100%
PRKCI (human)
  residual activity: 94.6%
PRKD1 (human)
  residual activity: 86.2%
RIPK2 (human)
  residual activity: 78.4%
ROCK1 (human)
  residual activity: 104%
RPS6KA5 KD2 (human)
  residual activity: 104%
STK11 (human)
  residual activity: 96.6%
STK33 (human)
  residual activity: 78.8%
STK39 (human)
  residual activity: 102%
TAOK3 (human)
  residual activity: 93.1%
TGFBR1 (human)
  residual activity: 99.4%
TSSK1B (human)
  residual activity: 112%
TSSK2 (human)
  residual activity: 106%
[2]
  residual activity: 22.8%
TYRO3 (human)
  residual activity: 102%
VRK1 (human)
  residual activity: 103%
YES1 (human)
  residual activity: 96.6%
